Source: patent US6245817A, “NPY5 receptor antagonists and methods for using same” (Bayer Corporation, priority 1999, dated 2001)

Key:
Rat NPY5 Receptor = molecular target: T1, Rat NPY5 Receptor (Rattus norvegicus, UniProt Q63634); assay: Rat NPY5 Receptor Binding Assay; details: for IC50: [125I]PYY, read-out: rNPY5 IC50
T1 sequence (Q63634 1-445): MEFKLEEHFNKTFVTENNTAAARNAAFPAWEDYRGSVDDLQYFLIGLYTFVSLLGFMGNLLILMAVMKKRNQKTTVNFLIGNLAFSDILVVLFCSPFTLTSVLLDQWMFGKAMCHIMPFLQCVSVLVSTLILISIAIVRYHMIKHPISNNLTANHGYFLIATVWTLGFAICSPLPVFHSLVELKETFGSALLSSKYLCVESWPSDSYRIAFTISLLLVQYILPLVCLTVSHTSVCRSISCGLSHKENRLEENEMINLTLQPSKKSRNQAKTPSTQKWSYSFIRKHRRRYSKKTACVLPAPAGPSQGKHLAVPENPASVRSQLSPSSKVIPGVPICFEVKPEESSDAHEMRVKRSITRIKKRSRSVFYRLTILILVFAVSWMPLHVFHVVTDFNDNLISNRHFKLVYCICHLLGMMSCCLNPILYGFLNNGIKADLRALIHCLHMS

Human NPY5 Receptor = molecular target: T2, Human NPY5 Receptor (Homo sapiens, UniProt Q15761); assay: Human NPY5 Receptor Binding Assay; details: [125I]PYY; read-out: hNPY5 IC50
T2 sequence (Q15761 1-445): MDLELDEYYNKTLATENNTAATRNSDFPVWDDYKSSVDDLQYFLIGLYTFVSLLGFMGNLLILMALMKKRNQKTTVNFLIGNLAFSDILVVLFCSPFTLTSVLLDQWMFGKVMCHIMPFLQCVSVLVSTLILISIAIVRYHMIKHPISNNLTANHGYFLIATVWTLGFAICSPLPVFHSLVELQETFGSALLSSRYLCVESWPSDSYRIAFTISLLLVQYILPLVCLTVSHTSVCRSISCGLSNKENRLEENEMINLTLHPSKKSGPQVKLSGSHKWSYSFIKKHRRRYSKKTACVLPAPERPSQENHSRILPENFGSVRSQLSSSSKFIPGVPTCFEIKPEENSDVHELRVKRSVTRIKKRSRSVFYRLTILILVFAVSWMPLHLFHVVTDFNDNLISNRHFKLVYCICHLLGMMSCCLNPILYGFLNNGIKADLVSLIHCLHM
Procedure: Human and Rat NPY5 Receptor Binding Assays
Binding assays are performed on GF/C Millipore 96-well plates pretreated with 0.02% polyethylenimine. The binding buffer is 25 mM Tris, 120 mM NaCl, 5 mM KCl, 1.2 mM KH2 PO4, 2.5 mM CaCl2, 1.2 mM MgSO4, 0.1% BSA and 0.5 mg/ml bacitracin, pH 7.4. Samples consist of membrane protein, 75-100 pM [125I]PYY (porcine, NEN-DuPont) and drug dilution. Nonspecific binding is defined by 1 μM PYY. After a 2 hour incubation at room temperature with constant mixing, the samples are aspirated on a vacuum manifold, and rinsed with ice-cold binding buffer. The amount of radioactivity in each well is quantitated with either gamma counting or liquid scintillation. IC50 values, which correspond to 50% inhibition of specific binding, are determined with non-linear regression analysis.

| SMILES | IC50 (Rat NPY5 Receptor) [nM] | IC50 (Human NPY5 Receptor) [nM] | inhibition at 10 µM (Rat NPY5 Receptor; 10 μM, values marked *, read-out: rNPY5 percent inhibition at 10 μM) [%] |
| --- | --- | --- | --- |
| Cn1nnnc1SCC(=O)NCCc1cccs1 [Compound 126, 2-(1-Methyl-1H-tetrazol-5-ylsulfanyl)-N-(2-thiophen-2-yl-ethyl)-acetamide] | > 1000 | – | – |
| CN1CCC(OCC(=O)Nc2ccc(C3CCCCC3)cc2)CC1 [Compound 135, N-(4-Cyclohexyl-phenyl)-2-(1-methy-piperidin-4-yloxy)-acetamide] | > 1000 | – | – |
| O=C(CSc1nnnn1-c1ccc(O)cc1)Nc1ccc(C2CCCCC2)cc1 [Compound 92, N-(4-Cyclohexyl-phenyl)-2-[1-(4-hydroxy-phenyl)-1H-tetrazo-ylsulfanyl]-acetamide] | 72 | 81 | – |
| O=C(CSc1ccnc2cc(C(F)(F)F)ccc12)Nc1ccc(C2CCCCC2)cc1 [Compound 93, N-(4-Cyclohexyl-phenyl)-2-(7-trifluoromethyl-quinolin-4-ylsulfanyl)-acetamide] | > 1000 | – | – |
| O=C(COc1ccccc1)Nc1ccc(C(=O)c2ccccc2)cc1 [Compound 134, N-(4-Benzoyl-phenyl)-2-phenoxy-acetamide] | > 1000 | – | – |
| Cc1nc(SCC(=O)Nc2ccc(C(=O)c3ccccc3)cc2)n[nH]1 [Compound 81, N-(4-Benzoyl-phenyl)-2-(5-methyl-1H-[1,2,4]triazol-3-ylsulfanyl)-acetamide] | > 1000 | – | – |
| O=C(CSCc1cccc(CS)c1)Nc1ccc(C(=O)c2ccccc2)cc1 [Compound 101, N-(4-Benzoyl-phenyl)-2-(3-mercaptomethyl-benzylsulfanyl)-acetamide] | 1500 | 1400 | – |
| O=C(CSc1nnc(CSCCOc2ccc(Cl)cc2Cl)o1)Nc1ccc(C(=O)c2ccccc2)cc1 [Compound 124] | 2300 | > 1000 | – |
| Nc1ccc(SCC(=O)Nc2ccc(C(=O)c3ccccc3)cc2)cc1 [Compound 103, 2-(4-Amino-phenylsulfanyl)-N-(4-benzoyl-phenyl)-acetamide] | > 1000 | – | – |
| CSc1sc(-c2nnc(SCC(=O)Nc3ccc(C(=O)c4ccccc4)cc3)n2C)c2c1C=CCC2 [Compound 119] | 1500 | 630 | – |
| COc1cccc(SCC(=O)Nc2ccc(C(=O)c3ccccc3)cc2)c1 [Compound 106, N-(4-Benzoyl-phenyl)-2-(3-methoxy-phenylsulfanyl)-acetamide] | > 1000 | – | – |
| O=C(CSc1nc2cc(Cl)ccc2s1)Nc1ccc(C2CCCCC2)cc1 [Compound 79] | – | > 1000 | – |
| COC(=O)c1cnc(SCC(=O)Nc2ccc(C3CCCCC3)cc2)n1C [Compound 115] | 360 | 900 | – |
| O=C(CSc1nc(-c2ccccc2)no1)Nc1ccc(C2CCCCC2)cc1 [Compound 90, N-(4-Cyclohexyl-phenyl)-2-(3-phenyl-[1,2,4]oxadiazol-ylsulfanyl)-acetamide] | 340 | 260 | – |
| Nc1nc(SCC(=O)Nc2ccc(C3CCCCC3)cc2)nc(O)c1N=O [Compound 78, 2-(4-Amino-6-hydroxy-5-nitroso-pyrimidin-2-ylsulfanyl)-N-(4-Cyclohexyl-phenyl)-acetamide] | – | > 1000 | – |
| Cc1cc(C)nc(SCC(=O)Nc2ccc(C3CCCCC3)cc2)n1 [Compound 80, N-(4-Cyclohexyl-phenyl)-2-(4,6-dimethyl-pyrimidin-2-ylsulfanyl)-acetamide] | – | > 1000 | – |
| O=C(CSc1n[nH]c(-c2ccco2)n1)Nc1ccc(C(=O)c2ccccc2)cc1 [Compound 118] | > 1000 | – | – |
| O=C(CSc1ccc2ccccc2n1)Nc1ccc(C2CCCCC2)cc1 [Compound 95, N-(4-Cyclohexyl-phenyl)-2-(quinolin-2-ylsulfanyl)-acetamide] | > 1000 | – | – |
| O=C(CSc1nccc(C(F)(F)F)n1)Nc1ccc(C(=O)c2ccccc2)cc1 [Compound 83, N-(4-Benzoyl-phenyl)-2-(4-trifluoromethylpyrimidin-2-ylsulfanyl)-acetamide] | 200 | 210 | – |
| CSc1ccc(SCC(=O)Nc2ccc(C(=O)c3ccccc3)cc2)cc1 [Compound 108, N-(4-Benzoyl-phenyl)-2-(4-methylsulfanyl-phenylsulfanyl)-acetamide] | > 1000 | – | – |
| Cc1ccnc(SCC(=O)Nc2ccc(C3CCCCC3)cc2)n1 [Compound 29] | – | 190 | – |

| SMILES | IC50 (Rat NPY5 Receptor) [nM] | IC50 (Human NPY5 Receptor) [nM] | inhibition at 10 µM (Rat NPY5 Receptor; 10 μM, values marked *, read-out: rNPY5 percent inhibition at 10 μM) [%] |
| --- | --- | --- | --- |
| Cn1nnnc1SCC(=O)N1CCCCCC1 [Compound 129, 1-Azepan-1-yl-2-(1-methyl-1H-tetrazol-5-ylsulfanyl)-ethanone] | > 1000 | – | – |
| CCOc1ccc2nc(SCC(=O)Nc3ccc(C4CCCCC4)cc3)sc2c1 [Compound 77, N-(4-Cyclohexyl-phenyl)-2-(6-ethoxy-benzothiazol-2-ylsulfanyl)-acetamide] | – | > 1000 | – |
| COc1ccc(-c2nnc(SCC(=O)Nc3ccc(C4CCCCC4)cc3)n2-c2cccc(C(F)(F)F)c2)cc1 [Compound 113, N-(4-Cyclohexyl-phenyl)-2-[5-(4-methoxy-phenyl)-4-(3-trifluoromethyl-phenyl)-4-[1,2,4]triazol-3-ylsulfanyl]-acetamide] | > 1000 | – | – |
| O=C(CSc1ncnc2ccccc12)Nc1ccc(C2CCCCC2)cc1 [Compound 74, N-(4-Cyclohexyl-phenyl)-2-(quinazolin-4-ylsulfanyl)-acetamide] | – | > 1000 | – |
| O=C(COc1ccccc1)Nc1ccc(C2CCCCC2)cc1 [Compound 132, N-(4-Cyclohexyl-phenyl)-2-phenoxy-acetamide] | > 1000 | – | – |
| O=C(CSc1nccc(C(F)(F)F)n1)Nc1ccc(C2CCCCC2)cc1 [Compound 75, N-(4-Cyclohexyl-phenyl)-2-(4-trifluoromethylpyrimidin-2-ylsulfanyl)-acetamide] | – | > 1000 | – |
| Cc1cc(C)c(CSCC(=O)Nc2ccc(C(=O)c3ccccc3)cc2)c(C)c1 [Compound 107, N-(4-Benzoyl-phenyl)-2-(2,4,6-trimethyl-benzylsulfanyl)-acetamide] | > 1000 | – | – |
| Cc1cnc(SCC(=O)Nc2ccc(C(=O)c3ccccc3)cc2)nc1S [Compound 104, N-(4-Benzoyl-phenyl)-2-(4-mercapt-5-methyl-pyrimidin-2-ylsulfanyl)-acetamide] | > 1000 | – | – |
| CSc1sc(-c2nnc(SCC(=O)Nc3ccc(C4CCCCC4)cc3)n2C)c2c1C=CCC2 [Compound 112, N-(4-Cyclohexyl-phenyl)-2-[4-methyl-5-(3-methylsulfanyl-6,7-dihydro-benzo[C]thiophen-1-yl)-4H-[1,2,4]triazol-3-ylsulfanyl]-acetamide] | > 1000 | – | – |
| Cn1nnnc1SCC(=O)Nc1nc2ccccc2s1 [Compound 128, N-Benzothiazol-2-yl-2-(1-methyl-1H-tetrazol-5-ylsulfanyl)-acetamide] | > 1000 | – | – |
| CN1CCC(OCC(=O)Nc2ccc(C(=O)c3ccccc3)cc2)CC1 [Compound 133, N-(4-Benzoyl-phenyl)-2-(1-methyl-piperidin-4-yloxy)-acetamide] | > 1000 | – | – |
| O=C(CSc1ccnc2cc(C(F)(F)F)ccc12)Nc1ccc(C(=O)c2ccccc2)cc1 [Compound 88, N-(4-Benzoyl-phenyl)-2-(7-trifluoromethyl-quinolin-4-ylsulfanyl)-acetamide] | > 1000 | – | – |
| O=C(CSc1ncc[nH]1)Nc1ccc(C(=O)c2ccccc2)cc1 [Compound 10, N-(4-Benzoyl-phenyl)-2-(1H-imidazol-2-ylsulfanyl)-acetamide] | – | – | 97 |
| O=C(CSc1ccc2ccccc2n1)Nc1ccc(C(=O)c2ccccc2)cc1 [Compound 100, N-(4-Benzoyl-phenyl)-2-(quinolin-2-ylsulanyl)-acetamide] | > 1000 | – | – |
| Nc1nc(S)nc(SCC(=O)Nc2ccc(C(=O)c3ccccc3)cc2)n1 [Compound 105, 2-(4-Amino-mercapto-[1,3,5]triazin-2-ylsulfanyl)-N-(4-benzoyl-phenyl)-acetamide] | > 1000 | – | – |
| Cc1nc(SCC(=O)Nc2ccc(C3CCCCC3)cc2)n[nH]1 [Compound 73, N-(4-Cyclohexyl-phenyl)-2-(5-methyl-1H-[1,2,4]triazol-3-ylsulfanyl)-acetamide] | – | > 1000 | – |
| Cn1nnnc1SCC(=O)Nc1cccc2c1Cc1ccccc1-2 [Compound 131, N-(9H-Fluoren-1-yl)-2-(1-methyl-1H-tetrazol-5-ylsulfanyl)-acetamide] | > 1000 | – | – |
| Nc1cc(N)nc(SCC(=O)Nc2ccc(C3CCCCC3)cc2)n1 [Compound 76, N-(4-Cycyclohexyl-phenyl)-2-(4,6-diamino-pyrimidin-2-ylsulfanyl)-cetamide] | – | > 1000 | – |
| Nc1cc(N)nc(SCC(=O)Nc2ccc(C(=O)c3ccccc3)cc2)n1 [Compound 84, N-(4-Benzoyl-phenyl)-2-(4,6-diamino-pyrimidin 2-ylsulfanyl)-acetamide] | > 1000 | – | – |
| O=C(CSc1ncnc2ccccc12)Nc1ccc(C(=O)c2ccccc2)cc1 [Compound 82, N-(4-Benzoyl-phenyl)-2-(quinazolin-4-ylsulfanyl)-acetamide] | > 1000 | – | – |
| O=C(CSc1nnc(CSCCOc2ccc(Cl)cc2Cl)o1)Nc1ccc(C2CCCCC2)cc1 [Compound 117] | > 1000 | – | – |
